Laboratory results taken from patent US20220411362A1, “DITERPENOID COMPOUNDS THAT ACT ON PROTEIN KINASE C (PKC)” (K-Gen, Inc., priority 2019, published 2022).
Where two headings read alike, the source gives them in different places.

What was measured:
[1] = molecular target: T1, C1b domain of human PKCδ (Homo sapiens, UniProt Q05655); test: Competitive 3H-PDBu binding to C1b domain of PKCδ; details: 3H-PDBu competition
T1 construct: Genes encoding C1b domains of human PKCα, δ, ε, θ, and PKD1 (PKCμ) were synthesized; made in house; host or cells: E. coli BL21(DE3)
T1 sequence (Q05655 230-280 limits assumed): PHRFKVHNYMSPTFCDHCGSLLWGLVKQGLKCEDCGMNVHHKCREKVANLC
Protocol: (§1) Compounds described in this disclosure were tested for binding affinity to C1b domain of PKC isoforms. Compound binding affinity to C1b domain of PKC isoforms was derived from competitive binding assay using radioactive tracer ^3H-PDBu and recombinant GST-C1b or full-length of human PKC proteins based on modified procedures from Methods in Molecular Biology, vol.
(§2) Genes encoding C1b domains of human PKCα, δ, ε, θ, and PKD1 (PKCμ) were synthesized and inserted into pGEX-2TK or pGEX-4T1 vectors for expression and production of GST-C1b proteins in E. coli BL21(DE3) via IPTG induction. The target proteins were purified by glutathione sepharose 4B and followed by ion exchange chromatography if needed to achieve purity >70%. Aliquots of the purified proteins were stored at −80 degree for binding assay (storage buffer: 20 mM Tris pH 8.0, 200 mM NaCl, 10% glycerol, 1 mM DTT).
(§3) The plate was incubated at 37° C. on a shaker at 300 rpm for 10 minutes and then put on ice for 20 minutes. […] The bottom of the filter plate was sealed and 50 μL of MicroScint-20 (PerkinElmer) cocktail was added to each well. ^3H-PDBu trapped in each well was counted using PerkinElmer MicroBeta2 Reader. Data were analyzed using GraphPad Prism5 with the model “log(inhibitor) vs. response-variable slope” to fit the IC50, and then IC50 was transformed to Ki using Cheng-Prusoff equation: Ki=IC50/(1+added radio ligand/Kd). Kd is the binding affinity of each protein preparation to ^3H-PDBu, determined experimentally.

[2] = molecular target: T2, C1b domain of human PKCθ (Homo sapiens, UniProt Q04759); test: Competitive 3H-PDBu binding to C1b domain of PKCθ
T2 construct: Genes encoding C1b domains of human PKCα, δ, ε, θ, and PKD1 (PKCμ) were synthesized; made in house; host or cells: E. coli BL21(DE3)
T2 sequence (Q04759 231-281 limits assumed): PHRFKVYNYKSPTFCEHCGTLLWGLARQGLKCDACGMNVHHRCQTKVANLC
Protocol: as §1, §2, §3

[3] = molecular target: T3, C1b domain of human PKCε (Homo sapiens, UniProt Q02156); test: Competitive 3H-PDBu binding to C1b domain of PKCε
T3 construct: Genes encoding C1b domains of human PKCα, δ, ε, θ, and PKD1 (PKCμ) were synthesized; made in house; host or cells: E. coli BL21(DE3)
T3 sequence (Q02156 242-292 limits assumed): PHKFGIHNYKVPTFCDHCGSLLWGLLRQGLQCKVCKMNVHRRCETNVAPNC
Protocol: as §1, §2, §3

[4] = system: A549 non-small cell lung cancer cell line; test: Proliferation of A549 (CellTiter Glo); type: cell-based; details: read-out: IC50 μM (A549 Cell Line)
Protocol: The diterpenoid compounds were tested in A549, a non-small cell lung cancer cell line harboring a K-Ras activating mutation. Briefly, A549 cells at a density of 1,000 cells/well were seeded in 96-well plates and incubated at 37° C. for 24 hours. A series of different concentrations of compound stocks (500×) were prepared by 3-fold serial dilution in DMSO. These compounds were further diluted in culture media and then added to cells so that the final DMSO concentration was not exceeding 0.25%. After 96 hours of incubation, 50 μL of CellTiter Glo reagent (Promega) was added to each well and luminescence was measured after 10 minutes using EnVision (PerkinElmer). Luminescence from cells treated with DMSO alone was set as Max and % of inhibition was calculated as follows: Inhibition %=(Max−Sample value)/Max×100. Data was analyzed using XL-fit software (ID Business Solutions Ltd.) and IC50, relative IC50, and % of top inhibition was calculated. Some of the compounds in this disclosure were very potent in blocking proliferation of A549 lung cancer cells at low nM range. In addition, potency of inhibiting A549 proliferation correlated well with its binding affinity to PKCs for this series of compounds. In other words, higher affinity binders had stronger inhibitory effects on A549 proliferation. This further support the notion that activation, rather than inhibition, of certain PKC isoforms is required to block proliferation of cancer cells, some of which may harbor K-Ras mutations. This is in sharp contrast to previous literature and common belief that inhibition of PKC is necessary to block cancer cell growth (Kang, 2014, New Journal of Science, 2014:1-36). Data presented here is in agreement with recent findings that many loss-of-function but not gain-of-function mutations of PKC isoforms have been identified in many human cancers (Antal et al., 2015, Cell, 160:489-502).

[5] = molecular target: T4, C1b domain of human PKD1 (PKCμ) (Homo sapiens, UniProt Q15139); test: biochemical; type: binding
T4 construct: Genes encoding C1b domains of human PKCα, δ, ε, θ, and PKD1 (PKCμ) were synthesized; made in house; host or cells: E. coli BL21(DE3)
T4 sequence (Q15139 270-320 limits assumed): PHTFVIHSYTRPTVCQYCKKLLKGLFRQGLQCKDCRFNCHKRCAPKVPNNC
Protocol: as §1, §2, §3

[6] = molecular target: T5, C1b domain of human PKCα (Homo sapiens, UniProt P17252); test: biochemical; type: binding; details: Ki PKCα, 3H-PDBu competition
T5 construct: Genes encoding C1b domains of human PKCα, δ, ε, θ, and PKD1 (PKCμ) were synthesized; made in house; host or cells: E. coli BL21(DE3)
Protocol: as §1, §2
The plate was incubated at 37° C. on a shaker at 300 rpm for 10 minutes and then put on ice for 20 minutes. […] The bottom of the filter plate was sealed and 50 μL of MicroScint-20 (PerkinElmer) cocktail was added to each well. ^3H-PDBu trapped in each well was counted using PerkinElmer MicroBeta2 Reader. […] Kd is the binding affinity of each protein preparation to ^3H-PDBu, determined experimentally.

Structure (SMILES) | Ki ([1]; Ki PKCδ) | Ki [2] | Ki [3] | IC50 ([4]; Homo sapiens, A549, 96 h) | Ki [5] | Ki [6] | Ki ([1]; read-out: Ki PKCδ) | Ki ([2]; C1b domain of human PKCθ, 3H-PDBu competition, read-out: Ki PKCθ) | Ki ([3]; C1b domain of human PKCε, 3H-PDBu competition, read-out: Ki PKCε) | IC50 ([4]; A549, 96 hours incubation, CellTiter Glo) | Ki ([5]; C1b domain of human PKD1 (PKCμ), 3H-PDBu competition, read-out: Ki PKD1/PKCμ)
CC1=C[C@H]2[C@@]3(O)[C@H](C)C[C@]4(O)[C@H]([C@@H]3C=C(CO)C[C@]2(O)C1=O)C4(C)C [Compound K101-C13OH] | 6000 to 8000 nM | 2000 to 4000 nM | 2000 to 4000 nM | > 30 µM | 4000 to 6000 nM | > 8000 nM |  |  |  |  | 
CC1=C[C@H]2[C@@]3(O)[C@H](C)C[C@]4(OC(=O)C5CC6(CNC6)C5)[C@H]([C@@H]3C=C(CO)C[C@]2(O)C1=O)C4(C)C [Compound K101-C1305] | 400 to 800 nM | 200 to 400 nM | 1000 to 2000 nM | > 30 µM | 100 to 200 nM | > 8000 nM |  |  |  |  | 
CC1=C[C@H]2[C@@]3(O)[C@H](C)C[C@]4(OC(=O)CC5CC6(CNC6)C5)[C@H]([C@@H]3C=C(CO)C[C@]2(O)C1=O)C4(C)C [Compound K101-C1306] | 100 to 200 nM | 100 to 200 nM | 200 to 400 nM | > 30 µM | 1 to 30 nM | 1000 to 2000 nM |  |  |  |  | 
CC1=C[C@H]2[C@@]3(O)[C@H](C)C[C@]4(OC(=O)C5CC6(C5)CN(C(=O)OC(C)(C)C)C6)[C@H]([C@@H]3C=C(CO)C[C@]2(O)C1=O)C4(C)C [Compound K101-C1311] | 1 to 30 nM | 1 to 30 nM | 30 to 60 nM | 0.1 to 0.2 µM | < 5 nM | 400 to 800 nM |  |  |  |  | 
CC1=C[C@H]2[C@@]3(O)[C@H](C)C[C@]4(OC(=O)[C@H](N)Cc5c[nH]c6ccccc56)[C@H]([C@@H]3C=C(CO)C[C@]2(O)C1=O)C4(C)C [Compound K101-C1341] | 30 to 60 nM |  |  | 10 to 30 µM | 1 to 30 nM | 1000 to 2000 nM |  |  |  |  | 
CC1=C[C@H]2[C@@]3(O)[C@H](C)C[C@]4(OC(=O)C[C@H](N)c5ccccc5)[C@H]([C@@H]3C=C(CO)C[C@]2(O)C1=O)C4(C)C [Compound K101-C1343] | 30 to 60 nM |  |  | 1 to 2 µM | 1 to 30 nM | 1000 to 2000 nM |  |  |  |  | 
CC1=C[C@H]2[C@@]3(O)[C@H](C)C[C@]4(OC(=O)C[C@@H](N)Cc5ccccc5)[C@H]([C@@H]3C=C(CO)C[C@]2(O)C1=O)C4(C)C [Compound K101-C1344] | 30 to 60 nM |  |  | 1 to 2 µM | 1 to 30 nM | 1000 to 2000 nM |  |  |  |  | 
CC1=C[C@H]2[C@@]3(O)[C@H](C)C[C@]4(OC(=O)C[C@@H](N)CCc5ccccc5)[C@H]([C@@H]3C=C(CO)C[C@]2(O)C1=O)C4(C)C [Compound K101-C1350] | 1 to 30 nM |  |  | 0.6 to 1 µM | < 5 nM | 400 to 800 nM |  |  |  |  | 
CC1=C[C@H]2[C@@]3(O)[C@H](C)C[C@]4(OC(=O)[C@H](N)CCCc5ccccc5)[C@H]([C@@H]3C=C(CO)C[C@]2(O)C1=O)C4(C)C [Compound K101-C1351] | 30 to 60 nM |  |  | 0.2 to 0.6 µM | 1 to 30 nM | 1000 to 2000 nM |  |  |  |  | 
CCCCCCCCCCCCCCCCCCC(CC(=O)O[C@@]12C[C@@H](C)[C@@]3(O)[C@@H](C=C(CO)C[C@]4(O)C(=O)C(C)=C[C@@H]34)[C@@H]1C2(C)C)C(=O)O (stereo partly shown) [Compound K101-C1352] | 200 to 400 nM |  |  | 5 to 10 µM | 200 to 400 nM | 4000 to 6000 nM |  |  |  |  | 
CC1=C[C@H]2[C@@]3(O)[C@H](C)C[C@]4(OC(=O)C(Cc5ccccc5)C(=O)O)[C@H]([C@@H]3C=C(CO)C[C@]2(O)C1=O)C4(C)C (stereo partly shown) [Compound K101-C1353] | 400 to 800 nM |  |  | 1 to 2 µM | 4000 to 6000 nM | > 8000 nM |  |  |  |  | 
CC1=C[C@H]2[C@@]3(O)[C@H](C)C[C@]4(OC(=O)[C@@H](O)Cc5ccccc5)[C@H]([C@@H]3C=C(CO)C[C@]2(O)C1=O)C4(C)C [Compound K101-C1354] | 30 to 60 nM |  |  | 0.2 to 0.6 µM | 1 to 30 nM | 1000 to 2000 nM |  |  |  |  | 
CC1=C[C@H]2[C@@]3(O)[C@H](C)C[C@]4(OC(=O)C[C@@H](N)c5ccccc5)[C@H]([C@@H]3C=C(CO)C[C@]2(O)C1=O)C4(C)C [Compound K101-C1357] | 200 to 400 nM |  |  | 2 to 5 µM | 30 to 60 nM | > 8000 nM |  |  |  |  | 
CC1=C[C@H]2[C@@]3(O)[C@H](C)C[C@]4(OC(=O)C[C@H](N)Cc5ccccc5)[C@H]([C@@H]3C=C(CO)C[C@]2(O)C1=O)C4(C)C [Compound K101-C1358] | 1 to 30 nM |  |  | 1 to 2 µM | 5 to 10 nM | 200 to 400 nM |  |  |  |  | 
CC1=C[C@H]2[C@@]3(O)[C@H](C)C[C@]4(OC(=O)[C@H](CC5CCCCC5)N(C)C)[C@H]([C@@H]3C=C(CO)C[C@]2(O)C1=O)C4(C)C [Compound K101-C1365] | 100 to 200 nM |  |  | 0.6 to 1 µM | 30 to 60 nM | 4000 to 6000 nM |  |  |  |  | 
CC1=C[C@H]2[C@@]3(O)[C@H](C)C[C@]4(OC(=O)[C@H](N)CCc5ccc(C(F)(F)F)cc5)[C@H]([C@@H]3C=C(CO)C[C@]2(O)C1=O)C4(C)C [Compound K101-C135601] | 30 to 60 nM |  |  | 0.2 to 0.6 µM | 1 to 30 nM | 1000 to 2000 nM |  |  |  |  | 
CC1=C[C@H]2[C@@]3(O)[C@H](C)C[C@]4(OC(=O)[C@H](N)CCCCCCc5ccc(C(F)(F)F)cc5)[C@H]([C@@H]3C=C(CO)C[C@]2(O)C1=O)C4(C)C [Compound K101-C135901] | 30 to 60 nM | 30 to 60 nM |  | 0.06 to 0.1 µM | 1 to 30 nM | 1000 to 2000 nM |  |  |  |  | 
CCCCCCCCCCCCCC(=O)O[C@@H]1[C@@H](C)[C@@]2(O)[C@@H](C=C(CO)C[C@]3(O)C(=O)C(C)=C[C@@H]23)[C@@H]2C(C)(C)[C@]12OC(C)=O [Compound K103, 12-O-Tetradecanoylphorbol-13-acetate, reference compound] |  |  |  |  |  |  | < 5 nM | < 5 nM | < 5 nM | < 0.001 µM | < 5 nM
